Experimental data reported in paper PMC8173604 (Cell, 2021).
“Also recorded” adds a separate entry of the source. Where two headings read alike, the source gives them in different places.

Experiments:
[1] = tested on: CD8+ T cells of HLA-A*02:01 subjects; assay type: cell-based, human
[2] = tested on: CD8+ T cells of convalescent COVID-19 individuals; conditions: ref Tarke et al., 2020; cited from earlier work
[3] = tested on: CD8+ T cells of HLA-B*07:02 subjects; assay type: cell-based, human
[4] = molecular target: HLA-A*02:01 (Homo sapiens, UniProt P04439, D140Y/D185E/D98H/E176V/E277Q/G131W/G231S/I119V/I121R/I166T/I218V/L300P/L318F/N151K/N90K/P208A/P217A/Q86G/Q94H/R138H/R169H/T345S); assay type: binding
[5] = molecular target: HLA-A*26:01 (Homo sapiens, UniProt P04439, A114D/A173T/A270S/D101N/D185E/E277Q/E87N/F33Y/G231S/I121R/I218V/K168Q/L180W/L300P/L318F/P208A/P217A/Q86R/Q94H/R138Q/S129P/T187R/T323A/T345S/V100A/V358M); assay type: binding

KLWAQCVQL [reference compound]
CD8+ T cell response (in words) [1]: weak responses

QLTPTWRVY
T cell responses in convalescent COVID-19 individuals expressing the predicted alleles [2]: elicit T cell responses

RPPIFIRRL
CD8+ T cell response (in words) [3]: positive reactivity

ELPDEFVVVTV
binding to A*02:01 (in words) [4]: binds | binding to A*26:01 (in words) [5]: binds | CD8+ T cell response (in words) ([1]; nine HLA-A*02:01 samples (seven COVID-19 convalescent and two unexposed)): top five reactive peptides; also recorded: strongest CD8+ response among all tested HLA-I peptides
